The values below are quoted from earlier work in patent US20090018107A1, “NOVEL COMPOSITION TO INCREASE MUSCLE STRENGTH” (ORAL DELIVERY TECHNOLOGY LTD., priority 2007, published 2009).

The structures appear in SMILES notation.

For data set [1] the following is noted: U.S. Pat. No. 6,989,378.
The conditions of data set [2]: U.S. Pat. No. 5,880,117.

Consider `CCCCCCCCCCC(=O)O[C@H]1CC[C@H]2[C@H]3[C@H](CC[C@]12C)[C@H]1CCC(=O)C=C1C[C@H]3C` [MENT undecanoate, (7α,17β)-7-methyl-17-[(1-ox-oundecyl)oxy]estr-4-en-3one], for which the “Solubility in oily media” value in data set [1] is “good solubility”.
As for `C[C@]12CC[C@H]3[C@@H](CCC4=C[C@@H](O)CC[C@@]43C)[C@@H]1CC[C@@H]2O` [4-androstene-3β,17β-diol], in data set [2], the “Period of decline after the peak” value is 3 to 4 h and the “Time to peak concentration after administration” value was at most 90 min.
